Results from patent publication US9623123B2, “Fluorescent conjugated polymers with a bodipy-based backbone and uses thereof” (Michigan Technological University, priority 2008, dated 2017).

Key:
[1] = UV-visible absorption and fluorescence spectra, fluorescence quantum yields in solution; format: physicochemical
Experimental: ^1H NMR and ^13C NMR spectra were taken on a 400 MHz Varian Unity Inova spectrophotometer instrument. ^1H and ^13C NMR spectra were recorded in CDCl3, chemical shifts (δ) are given in ppm relative to solvent peaks (1H: δ 7.26; 13C: δ 77.3) as internal standard. UV spectra were taken on a Hewlett Packard 8452A Diode Array UV-visible spectrophotometer. Fluorescence spectra were recorded on a Spex Fluorolog 1681 0.22 m steady-state fluorometer. Fluorescence quantum yields of BODIPY dyes and polymers were measured in methylene chloride and DMF, and calculated by using fluorescein excited at 490 nm in 0.1 N NaOH as the reference absolute quantum efficiency (φn=85%). Molecular weights of the polymers were determined by gel permeation chromatography (“GPC”) by using a Waters Associates Model 6000A liquid chromatograph. Three American Polymer Standards Corp. Ultrastyragel columns in series with porosity indices of 10^3, 10^4, and 10^5 Å were used and housed in an oven thermostated at 30° C. Mobile phase was HPLC grade THF which was filtered and degassed by vacuum filtration through a 0.5 μm fluoropore filter prior to use. The polymers were detected by a Waters Model 440 ultraviolet absorbance detector at a wavelength of 254 nm and a Waters Model 2410 refractive index detector. Molecular weights were measured relative to polystyrene standards. An Enraf Nonius CAD-4 X-Ray diffractometer was used in the crystal structure determination. The windows program WinGX was used as the interface for the solution and refinement of the model. The data were first reduced and corrected for absorption using the psi-scans, and then solved using the program SIR2004. The model was refined using SHELXL97.
(§1) ^1H NMR and ^13C NMR spectra were taken on a 400 MHz Varian Unity Inova spectrophotometer instrument. ^1H and ^13C NMR spectra were recorded in CDCl3, and chemical shifts (5) are given in ppm relative to solvent peaks (at 7.24 ppm for ^1H spectra and at 77.3 for ^13C spectra) as internal standard. UV spectra were taken on a Hewlett-Packard 8452A Diode Array UV-visible spectrophotometer. Fluorescence spectra were recorded on a Spex Fluorolog 1681 0.22 m steady-state fluorometer. Fluorescence quantum yields of BODIPY dyes and polymers were measured in methylene chloride and calculated by using fluorescein excited at 490 nm in 0.1 N NaOH as the reference (its quantum efficiency of 85%). Fluorescence lifetimes were measured on a GL-3300 Nitrogen Laser laserstrobe PTI instrument and analyzed using FeliX32 software.
^1H NMR and ^13C NMR spectra were taken on a 400 MHz Varian Unity Inova spectrophotometer instrument. ^1H and ^13C NMR spectra were recorded in CDCl3, chemical shifts (δ) are given in ppm relative to solvent peaks (^1H: δ 7.26; ^13C: δ 77.3) as internal standard. UV spectra were taken on a Hewlett Packard 8452A Diode Array UV-visible spectrophotometer. Fluorescence spectra were recorded on a Spex Fluorolog 1681 0.22 m steady-state fluorometer. Fluorescence quantum yields of BODIPY dyes and polymers were measured in methylene chloride and DMF, and calculated by using fluorescein excited at 490 nm in 0.1 N NaOH as the reference quantum efficiency (φn=85%).^30,31 Molecular weights of the polymers were determined by gel permeation chromatography (GPC) by using a Waters Associates Model 6000A liquid chromatograph. Three American Polymer Standards Corp. Ultrastyragel columns in series with porosity indices of 10^3, 10^4, and 10^5 Å were used and housed in an oven thermostated at 30° C. Mobile phase was HPLC grade THF which was filtered and degassed by vacuum filtration through a 0.5 μm fluoropore filter prior to use. The polymers were detected by a Waters Model 440 ultraviolet absorbance detector at a wavelength of 254 nm and a Waters Model 2410 refractive index detector. Molecular weights were measured relative to polystyrene standards. […]

[2] = Fluorescence lifetime measurement; format: physicochemical
Experimental: as §1
^1H NMR and ^13C NMR spectra were taken on a 400 MHz Varian Unity Inova spectrophotometer instrument. ^1H and ^13C NMR spectra were recorded in CDCl3, and chemical shifts (δ) are given in ppm relative to solvent peaks (^1H, δ 7.26; ^13C, δ 77.3) as internal standard. UV spectra were taken on a Hewlett-Packard 8452A Diode Array UV-visible spectrophotometer. Fluorescence spectra were recorded on a Spex Fluorolog 1681 0.22 m steady-state fluorometer. Fluorescence quantum yields of BODIPY dyes and polymers were measured in methylene chloride and calculated by using fluorescein exCIted at 490 nm in 0.1 N NaOH as the reference (quantum effiCIency, cPn=85%). Fluorescence lifetimes were measured on a 010-3300 Nitrogen Laser laserstrobe PTI instrument and analyzed using FeliX32 software. Molecular weights of the polymers were determined by gel permeation chromatography (OPC) by using a Waters AssoCIates model 6000A liquid chromatograph. Three American Polymer Standards Corp. ultrastyragel columns in series with porosity indices of 103, 104, and 105 A were used and housed in an oven thermostatted at 30° C. The mobile phase was HPLC grade THF which was filtered and degassed by vacuum filtration through a 0.5, urn fluoropore filter prior to use. The polymers were detected by a Waters Model 440 ultraviolet absorbance detector at a wavelength of 254 nm and a Waters Model 2410 refractive index detector. Molecular weights were determined relative to polystyrene standards.

[3] = methylene chloride solution (Table 9, Example 13)
[4] = methylene chloride solution (Table 10, Example 14)
[5] = methylene chloride solution, fluorescein standard (Table 10, Example 14)
[6] = methylene chloride solution, fluorescein standard (Table 9, Example 13)
[7] = CH2Cl2 solution (Table 2, Example 2)
[8] = CH2Cl2 solution, fluorescein reference (Example 2)
[9] = DMF solution (Table 3, Example 2)
[10] = DMF solution, fluorescein reference (Example 2)

Absorption maxima [1, 3] | Emission maxima [1, 3] | Stokes shift [1, 3] | Absorption maxima [1, 4] | Emission maxima [1, 4] | Quantum yield [1, 5] | Fluorescence lifetime [2, 3] | Fluorescence lifetime [2, 4] | Quantum yield [1, 6] | Absorption maxima [1, 7] | Emission maxima [1, 7] | Quantum yield [1, 8] | Absorption maxima [1, 9] | Emission maxima [1, 9] | Quantum yield [1, 10] | SMILES
501 nm | 509 nm | 8 nm | 501 nm | 510 nm | 76% | 3.9 ns | 3.8 ns |  |  |  |  |  |  |  | CCCCCCCCCCCCOc1ccc(C2=C3C(C)=CC(C)=[N+]3[B-](F)(F)n3c(C)cc(C)c32)cc1 [Compound 3a]
502 nm | 510 nm | 8 nm | 502 nm | 511 nm | 81% | 4.1 ns | 4.1 ns |  |  |  |  |  |  |  | CCCCCCCCCCCCOc1ccc(C2=C3C(C)=CC(C)=[N+]3[B-](F)(F)n3c(C)cc(C)c32)cc1OCCCCCCCCCCCC [Compound 3b]
503 nm | 511 nm | 9 nm |  |  |  | 3.2 ns |  |  |  |  |  |  |  |  | CCCCCCCCCCCCOc1cc(C2=C3C(C)=CC(C)=[N+]3[B-](F)(F)n3c(C)cc(C)c32)cc(OCCCCCCCCCCCC)c1OCCCCCCCCCCCC [Compound 3c]
533 nm | 548 nm | 15 nm | 533 nm | 548 nm | 5.8% | 0.21 ns | 0.13 ns | 2.3% |  |  |  |  |  |  | CCCCCCCCCCCCOc1ccc(C2=C3C(C)=C(I)C(C)=[N+]3[B-](F)(F)n3c(C)c(I)c(C)c32)cc1 [Compound 4a]
534 nm | 549 nm | 15 nm | 534 nm | 549 nm | 5.8% | 0.15 ns | 0.08 ns | 2.7% |  |  |  |  |  |  | CCCCCCCCCCCCOc1ccc(C2=C3C(C)=C(I)C(C)=[N+]3[B-](F)(F)n3c(C)c(I)c(C)c32)cc1OCCCCCCCCCCCC [Compound 4b]
535 nm | 550 nm | 15 nm |  |  |  | 0.19 ns |  | 2.3% |  |  |  |  |  |  | CCCCCCCCCCCCOc1cc(C2=C3C(C)=C(I)C(C)=[N+]3[B-](F)(F)n3c(C)c(I)c(C)c32)cc(OCCCCCCCCCCCC)c1OCCCCCCCCCCCC [Compound 4c]
554 nm | 569 nm | 15 nm | 553 nm | 569 nm | 71% | 4.4 ns | 4.5 ns |  |  |  |  |  |  |  | CCCCCCCCCCCCOc1ccc(C2=C3C(C)=C(C#C[Si](C)(C)C)C(C)=[N+]3[B-](F)(F)n3c(C)c(C#C[Si](C)(C)C)c(C)c32)cc1 [Compound 5a]
555 nm |  | 15 nm | 554 nm | 570 nm | 79% | 4.6 ns | 5.2 ns |  |  |  |  |  |  |  | CCCCCCCCCCCCOc1ccc(C2=C3C(C)=C(C#C[Si](C)(C)C)C(C)=[N+]3[B-](F)(F)n3c(C)c(C#C[Si](C)(C)C)c(C)c32)cc1OCCCCCCCCCCCC [Compound 5b]
556 nm | 570 nm | 14 nm |  |  |  | 4.4 ns |  |  |  |  |  |  |  |  | CCCCCCCCCCCCOc1cc(C2=C3C(C)=C(C#C[Si](C)(C)C)C(C)=[N+]3[B-](F)(F)n3c(C)c(C#C[Si](C)(C)C)c(C)c32)cc(OCCCCCCCCCCCC)c1OCCCCCCCCCCCC [Compound 5c]

The remaining lines, values behind:

SMILES | Absorption maxima [1, 3] | Emission maxima [1, 3] | Stokes shift [1, 3] | Absorption maxima [1, 4] | Emission maxima [1, 4] | Quantum yield [1, 5] | Fluorescence lifetime [2, 3] | Fluorescence lifetime [2, 4] | Quantum yield [1, 6] | Absorption maxima [1, 7] | Emission maxima [1, 7] | Quantum yield [1, 8] | Absorption maxima [1, 9] | Emission maxima [1, 9] | Quantum yield [1, 10]
COc1cc(C2=C3C(C)=CC(C)=[N+]3[B-](F)(F)n3c(C)cc(C)c32)cc(OC)c1OC [Compound 9, 4,4-Difluoro-8-(3,4,5-trimethoxyphenyl)-1,3,5,7-tetramethyl-4-bora-3a,4a-diaza-s-indacene] |  |  |  |  |  |  |  |  |  | 502 nm | 511 nm | 71.5% | 501 nm | 511 nm | 55.3%
COc1cc(C2=C3C(C)=C(I)C(C)=[N+]3[B-](F)(F)n3c(C)c(I)c(C)c32)cc(OC)c1OC [Compound 10, 4,4-Difluoro-8-(3,4,5-trimethoxyphenyl)-2,6-diiodo-1,3,5,7-tetramethyl-4-bora-3a,4a-diaza-s-indacene] |  |  |  |  |  |  |  |  |  | 535 nm | 549 nm | 7.52% | 534 nm | 551 nm | 3.4%
COc1ccc(C2=C3C(C)=CC(C)=[N+]3[B-](F)(F)n3c(C)cc(C)c32)cc1 [Compound 14, 4,4-Difluoro-8-(4-methoxyphenyl)-1,3,5,7-tetramethyl-4-bora-3a,4a-diaza-s-indacene] |  |  |  |  |  |  |  |  |  | 500 nm | 510 nm | 80.1% | 500 nm | 510 nm | 71.6%
COc1ccc(C2=C3C(C)=C(I)C(C)=[N+]3[B-](F)(F)n3c(C)c(I)c(C)c32)cc1 [Compound 15, 4,4-Difluoro-8-(4-methoxyphenyl)-2,6-diiodo-1,3,5,7-tetramethyl-4-bora-3a, 4a-diaza-s-indacene] |  |  |  |  |  |  |  |  |  | 533 nm | 548 nm | 5.72% | 533 nm | 551 nm | 4.9%
CC1=CC(C)=[N+]2C1=C(c1c(C)cccc1C)c1c(C)cc(C)n1[B-]2(F)F [Compound 18, 4,4-Difluoro-8-(2,6-dimethylphenyl)-1,3,5,7-tetramethyl-4-bora-3a,4a-diaza-s-indacene] |  |  |  |  |  |  |  |  |  | 501 nm | 510 nm | 86.7% | 502 nm | 510 nm | 73.8%
CC1=C(I)C(C)=[N+]2C1=C(c1c(C)cccc1C)c1c(C)c(I)c(C)n1[B-]2(F)F [Compound 19, 4,4-Difluoro-8-(2,6-dimethylphenyl)-2,6-diiodo-1,3,5,7-tetramethyl-4-bora-3a,4a-diaza-s-indacene] |  |  |  |  |  |  |  |  |  | 535 nm | 549 nm | 8.64% | 536 nm | 552 nm | 4.4%
